Assay results as given in patent US20120015063A1, “COMPOSITION FOR TREATMENT AND/OR PREVENTION OF SKIN DISORDER” (priority 2009, published 2012).

Key:
[1] = system: hairless mice of a photoaging model; experiment: Skin moisture content by CORNEOMETER CM825, mixed-diet administration (Example 2); type: in vivo, Hos: HR-1 hairless mice; settings: 0.24% glucosamine-mixed diet
[2] = system: hairless mice of a photoaging model; experiment: Histological analysis of HE-stained dorsal skin (epidermis thickness, edema), mixed-diet administration (Example 2); type: in vivo, Hos: HR-1 hairless mice; settings: 0.24% glucosamine-mixed diet
type I collagen = experiment: Quantification of type I collagen in skin extract by SDS-PAGE and Western blotting (Example 2); type: in vivo, Hos: HR-1 hairless mice; settings: 0.24% glucosamine-mixed diet, UV-irradiated
Experimental: After the grouping, UV-irradiated groups were irradiated with UV light three times a week. Specifically, for the first week, 1 minute of UV irradiation was carried out. For the second week, 2 minutes of UV irradiation, and for the third and fourth week, 3 minutes of UV irradiation were conducted. From the fourth week to the time of dissection completed, 4 minutes of UV irradiation were carried out.
A UVB lump GL20SE (SANKYO DENKI) was used to carry out UV irradiation having irradiation intensity of 0.3 mW/cm^2. […] Irradiation intensity was adjusted by using a digital ultraviolet light intensity meter, UV-340 (AS ONE Corporation). During irradiation, mice were left for one and a half hour in an individualized cage having a size of 9 cm×5 cm×4 cm. In order to decrease a difference in irradiation intensity for respective cages, the mice were irradiated while subjected to a rotation in every occasion.
A frozen and crushed skin was degreased using methanol for 24 hours. Then, an appropriate amount of PBS (−) containing protease inhibitors was added, and the sample was stirred with a rotator and washed twice to remove serum components, etc. […]

hyaluronic acid (HA) = experiment: Identification of GAG in skin extract by cellulose acetate membrane electrophoresis (Example 2); type: in vivo, Hos: HR-1 hairless mice; settings: 0.24% glucosamine-mixed diet, UV-irradiated
Experimental: After the grouping, UV-irradiated groups were irradiated with UV light three times a week. Specifically, for the first week, 1 minute of UV irradiation was carried out. For the second week, 2 minutes of UV irradiation, and for the third and fourth week, 3 minutes of UV irradiation were conducted. From the fourth week to the time of dissection completed, 4 minutes of UV irradiation were carried out. The total irradiation amount was 1.35 J. In addition, moisture content and an amount of food ingested were measured twice a week, and body weight was measured once a week.
A UVB lump GL20SE (SANKYO DENKI) was used to carry out UV irradiation having irradiation intensity of 0.3 mW/cm^2. […] Irradiation intensity was adjusted by using a digital ultraviolet light intensity meter, UV-340 (AS ONE Corporation). During irradiation, mice were left for one and a half hour in an individualized cage having a size of 9 cm×5 cm×4 cm. […]

carbonyl proteins = experiment: Quantification of carbonyl proteins in skin tissue by Oxyblot Western blotting (Example 2); type: in vivo, Hos: HR-1 hairless mice; settings: 0.24% glucosamine-mixed diet, UV-irradiated
Experimental: After one week of acclimatization, 54 six-week-old male Hos: HR-1 hairless mice were used in experiments. The below-described diet was used, and the mice were reared under conditions at 25° C. while keeping a free access to food and water. In addition, during measurements of the skin moisture content, a humidity meter was used to determine humidity in an animal room. All experiments were conducted under approval (No. 19-76) of Animal Care and Use Committee of Tokyo University of Agriculture and Technology.
Preparation of an administration diet was ordered to Oriental Yeast Co., Ltd. First, 0.072% mangosteen pericarp extract-mixed diet and 0.15% mangosteen pericarp extract-mixed diet were used. In addition, 0.24% glucosamine-mixed diet was used as a positive control, and CRF-1 diet was used as a negative control. A daily amount of mangosteen pericarp extract ingested was set to 120 mg/kg body weight for the 0.072% group, and set to 250 mg/kg body weight for the 0.15% group as a rough guideline.
A study schedule is illustrated in FIG. 1. A study period was set to 8 weeks, and the study was carried out from October to December in 2007. […] The total irradiation amount was 1.35 J. In addition, moisture content and an amount of food ingested were measured twice a week, and body weight was measured once a week. […]

[3] = system: hairless mice, UVB irradiation; experiment: Skin moisture content by CORNEOMETER CM 825, oral forced administration (Example 3); type: in vivo; settings: 20 mg/ml collagen solution, 0.1 ml/10 g body weight orally daily, UV-irradiated (collagen (+) group)
Experimental: Skin moisture content was measured using CORNEOMETER® CM825 (manufactured by COURAGE+KHAZAKA electronic GMBH) twice a week, the measurement being carried out by contacting a probe onto a lumbar region of a mouse prior to UVB irradiation. The measurements were conducted five times, and the average of them was designated as a measured value.
An administration sample employed a mangosteen pericarp formulation. Specifically, a formulation having a ratio of a mangosteen pericarp extract:gum arabic=1:1 was used. One having only gum arabic was used as a control, and collagen was used as a positive control. Solutions having respective concentrations were prepared. A solution having a concentration of 0.1 ml/10 g body weight was orally administered every day during the rearing period by using a stomach tube. Two kinds (a high concentration (24 mg/ml) and a low concentration (12 mg/ml)) of a solution containing a mangosteen pericarp extract were prepared. Then, 24 mg/ml of a gum arabic solution and 20 mg/ml of a collagen solution were prepared.
After 1 week of acclimatization, grouping was conducted based on skin moisture content and viscoelasticity. […]

| Compound | skin moisture content at week 8 ([1]; UV-irradiated (GlcN (+) group)) | skin moisture content compared to control (+) ([1]; UV-irradiated, weeks 7 and 8) | thickness of the epidermis compared to control (−) ([2]; UV-irradiated) | thickness of the epidermis ([2]; UV-irradiated (GlcN (+) group)) | type I collagen band intensity (control (−) set to 1; average of α-chain and β-chain) (type I collagen) | band intensity of HA (control (−) set to 1) (hyaluronic acid (HA)) | carbonyl protein band intensity (control (−) set to 1) (carbonyl proteins) | skin moisture content at week 7 [3] |
| --- | --- | --- | --- | --- | --- | --- | --- | --- |
| N[C@H]1C(O)O[C@H](CO)[C@@H](O)[C@@H]1O (some centres unmarked) [GlcN, glucosamine] | 62.96±2.78 | significant increase | significant increase in the thickness of the epidermis | 39.46±9.56 μm | 1.25 | 0.58 | 1.63 |  |
| collagen |  |  |  |  |  |  |  | 68.54±2.91 |
